Values of other authors as cited in US12616197B2, “Three-dimensional printing” (PERIDOT PRINT LLC, priority 2021, dated 2026).
≈ marks a conversion by molar mass, not a printed value. Where two headings read alike, the source gives them in different places.

Compound	solubility in water (water)	also measured
Cc1ncc(CO)c(CN)c1O [pyridoxamine]	29 mg/mL (≈ 172 mM)	–
Cc1ncc(CO)c(CO)c1O.Cl [pyridoxine hydrochloride]	–	solubility in water: 200 mg/mL
Cc1cc2nc3c(=O)[nH]c(=O)nc-3n(C[C@H](O)[C@H](O)[C@H](O)CO)c2cc1C [riboflavin]	–	solubility in water (water, depending on the crystal structure): 1000 mg/3,000-15,000 mL
cyanocobalamin	1000 mg/80 mL	–
